The target of assay [1] is COX1 (Ovis aries (Sheep), UniProt P05979). As to the kind of experiment: COX-1 activity, colorimetric assay. To be noted: screening dose 100 μM; read-out: IC50 μM against COX1. Format: biochemical, ovine. As to the method: (§1) Compounds according to the present disclosure were tested for their in vitro ability to inhibit recombinant human PDE5, COX1 and COX2 enzymes at screening doses of 50, 100 and 100 μM respectively.
COX-1 and COX-2 activities were measured using purified ovine COX-1 and COX-2 with colorimetric assay kits obtained from Cayman Chemical Co. (Ann Arbor, Mich.). The activities of COX-1 and COX-2 were measured after the addition of arachidonic acid and incubation at 25° C. for 5 min by absorbance at 590 nm as specified by the manufacturer.

In assay [2] the test system is human breast MDA-MB-231 tumor cell line. Kind of assay: Tumor cell growth assay (Cell Titer Glo). The format is cell-based. Particulars: MDA-MB-231, 72 hours, read-out: IC50 μM against MDA-MB-231. (Cellular ATP, detected with luciferase, serves as a proxy for viable cell number.)
The target of assay [3] is recombinant human PDE5 (Homo sapiens (Human), UniProt O76074). As to the kind of experiment: PDE5 inhibition, IMAP fluorescence polarization assay. Format: biochemical. Particulars: recombinant human PDE5; IC50 determined if inhibition >50% at 50 μM screening dose; read-out: IC50 μM against PDE5. As to the method:
as §1
(§2) PDE activity was measured using the IMAP fluorescence polarization assay (Molecular Devices) in which binding of hydrolyzed cyclic nucleotide substrate to immobilized metal coordination complexes increases fluorescence polarization (FP). Tetramethylrhodamine (TAMRA)-cGMP and fluorescein-cAMP were used as substrates, each at final concentration of 50 nmol/L. The PDE assay was done according to the manufacturer's specifications using either whole cell lysates or recombinant enzymes.

The target of assay [4] is PDE2A (Homo sapiens (Human), UniProt O00408). Kind of assay: PDE isozyme selectivity, IMAP assay. Format: biochemical. How it is done: as §2
Chain of PDE2A (O00408 whole entry, species assumed): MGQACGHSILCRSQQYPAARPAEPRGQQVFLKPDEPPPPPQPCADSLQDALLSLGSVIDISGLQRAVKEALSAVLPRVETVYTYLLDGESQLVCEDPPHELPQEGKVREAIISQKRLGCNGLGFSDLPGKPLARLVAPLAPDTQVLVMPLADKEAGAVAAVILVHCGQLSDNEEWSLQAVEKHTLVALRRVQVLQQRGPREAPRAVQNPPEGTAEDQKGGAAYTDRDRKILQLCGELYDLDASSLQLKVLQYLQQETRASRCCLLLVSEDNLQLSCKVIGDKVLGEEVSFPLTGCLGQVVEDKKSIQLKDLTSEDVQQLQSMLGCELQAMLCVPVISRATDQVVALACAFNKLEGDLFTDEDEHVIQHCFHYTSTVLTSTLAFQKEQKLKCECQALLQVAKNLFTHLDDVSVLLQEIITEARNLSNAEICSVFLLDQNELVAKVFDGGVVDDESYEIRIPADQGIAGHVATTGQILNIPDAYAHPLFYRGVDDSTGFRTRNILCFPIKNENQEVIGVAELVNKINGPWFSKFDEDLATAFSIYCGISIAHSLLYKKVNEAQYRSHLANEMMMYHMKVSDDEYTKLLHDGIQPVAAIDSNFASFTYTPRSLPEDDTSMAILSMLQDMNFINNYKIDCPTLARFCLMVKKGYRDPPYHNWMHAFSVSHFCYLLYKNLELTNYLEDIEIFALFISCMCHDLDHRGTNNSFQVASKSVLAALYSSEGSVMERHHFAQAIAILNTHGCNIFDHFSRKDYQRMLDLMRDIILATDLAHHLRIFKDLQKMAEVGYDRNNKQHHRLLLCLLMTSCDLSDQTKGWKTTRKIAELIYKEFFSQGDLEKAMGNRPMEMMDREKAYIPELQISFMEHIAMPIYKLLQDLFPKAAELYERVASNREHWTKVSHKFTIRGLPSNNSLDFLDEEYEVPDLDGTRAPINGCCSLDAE

Chain of COX1 (P05979 25-600): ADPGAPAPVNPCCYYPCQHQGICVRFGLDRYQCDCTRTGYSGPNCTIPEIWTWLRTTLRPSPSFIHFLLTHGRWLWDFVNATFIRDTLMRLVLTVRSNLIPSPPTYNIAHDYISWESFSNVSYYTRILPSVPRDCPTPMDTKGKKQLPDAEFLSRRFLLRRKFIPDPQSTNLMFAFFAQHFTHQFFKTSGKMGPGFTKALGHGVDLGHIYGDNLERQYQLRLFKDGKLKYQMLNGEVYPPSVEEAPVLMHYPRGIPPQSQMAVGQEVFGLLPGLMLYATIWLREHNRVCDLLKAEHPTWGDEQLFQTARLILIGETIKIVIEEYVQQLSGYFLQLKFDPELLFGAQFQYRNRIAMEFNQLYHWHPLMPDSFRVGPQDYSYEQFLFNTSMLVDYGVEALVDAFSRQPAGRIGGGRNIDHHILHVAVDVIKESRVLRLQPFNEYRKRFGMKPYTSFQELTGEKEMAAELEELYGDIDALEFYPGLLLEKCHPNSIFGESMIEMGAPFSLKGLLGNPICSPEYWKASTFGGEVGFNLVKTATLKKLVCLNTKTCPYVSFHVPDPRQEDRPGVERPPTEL

`CC(C)(C)C1=NN(c2ccc(C(=O)O)cc2)C(c2ccc(Cl)cc2Cl)C1` (centres unmarked) [Compound 12, 4-(3-(tert-Butyl)-5-(2,4-dichlorophenyl)-4,5-dihydro-1H-pyrazol-1-yl)benzoic acid]: the IC50 (in general, the concentration needed to halve the response being measured) in assay [1] was over 100 µM; in assay [2], over 50 µM; in assay [3] it was 3.7 µM; in assay [4] (substrate cAMP), over 50 µM; in assay [4] (substrate cGMP) it was over 50 µM.

The record behind these values is US9388139B2, “Derivatives of celeboxib, use thereof and preparation thereof” (German University, priority 2011, dated 2016).
